The nature of test [1]: Ratio of toxicity in areobic conditions to hypoxic condition of EMT6 cells. It is filed as functional.
Test [2] concerns EMT6. In words: Compound is measured for surviving fractions of EMT6 tumor cells treated in culture with (0.50 uM) concentration for 1 hr under aerobic condition. It is filed as functional. The following applies: Mus musculus, EMT6, 1 h; read-out: ED50 (the source's name).
Test [3] has as its system EMT6. Kind of test: Compound is measured for surviving fractions of EMT6 tumor cells treated in culture with (0.50 uM) concentration for 1 hr under hypoxic condition. It is filed as functional. The following applies: Mus musculus, EMT6, 1 h; read-out: ED50 (the source's name).
Test [4] deals with EMT6. In words: Percentage of EMT6 tumor cells under hypoxic condition were killed when exposed to 10 uM concentration of the compound. It is filed as functional, Mus musculus.
In test [5] the test system is EMT6. Kind of test: Maximum effective concentration against EMT6 tumor cells uncer aerobic conditions. Format: functional, cell-based. Particulars: Mus musculus.

The values below come from ChEMBL document CHEMBL1121562, “2-Methylanthraquinone derivatives as potential bioreductive alkylating agents” (1980).

pEC50: −log10 of the molar value. Bounds are passed on as bounds.

One may read the Inhibition as the change of the read-out against control, counted positive when it falls.

On to `COc1cccc2c1C(=O)c1c(O)c3c(c(O)c1C2=O)C[C@@](O)(C(=O)CO)C[C@@H]3O[C@H]1C[C@H](N)[C@H](O)[C@H](C)O1` [DOXORUBICIN], for which the Ratio in test [1] is on record as greater than 120. For the same compound, the pEC50 in test [2] is 7.92; in test [3], greater than 10.00.

In the case of `Cc1ccc(S(=O)(=O)OCc2ccc3c(c2)C(=O)c2ccccc2C3=O)cc1`, the Ratio in test [1] was greater than 111. Further, the pEC50 in test [2] was less than 3.00; in test [3] it was 5.05. The compound also displayed an Inhibition in test [4] of 50%.

Turning to `O=C1c2ccccc2C(=O)c2cc(CO)ccc21`, in test [1], the Ratio was determined as 139. For the same compound, the pEC50 in test [2] was 3.46; in test [3], 5.60.

Consider `CNC(=O)OCc1ccc2c(c1)C(=O)c1ccccc1C2=O`, for which the Ratio in test [1] was 30. In test [5], the Concentration came out at 100 µM. For the same compound, the pEC50 in test [2] was 5.09; in test [3] it was 6.57.

Regarding `COCc1ccc2c(c1)C(=O)c1ccccc1C2=O`, the Ratio in test [1] worked out at 50. In addition, the pEC50 in test [2] was 4.52; in test [3] it was 6.22.

Regarding `Cc1ccc2c(c1)C(=O)c1ccccc1C2=O` [TECTOQUINONE], the Ratio in test [1] came to 3.2. Besides, the pEC50 in test [2] was 5.77; in test [3], 6.27.

Turning to `CS(=O)(=O)OCc1ccc2c(c1)C(=O)c1ccccc1C2=O`, in test [1], the Ratio is 2.6. The pEC50 in test [2] was 3.74; in test [3], 4.16.

In the case of `CC(=O)OCc1ccc2c(c1)C(=O)c1ccccc1C2=O`, the Ratio in test [1] was determined as 0.4. In addition, the pEC50 in test [2] is 5.44; in test [3], 5.05.

As for `O=C1c2ccccc2C(=O)c2cc(CCl)ccc21`, in test [1], the Ratio is recorded as greater than 26. Further, the pEC50 in test [2] is 6.51; in test [3], greater than 7.92.

As for `CO[C@@]12[C@H](COC(N)=O)C3=C(C(=O)C(C)=C(N)C3=O)N1C[C@@H]1N[C@@H]12` [MITOMYCIN], the Ratio in test [1] is listed as 700. The pEC50 in test [2] was 6.15; in test [3] it was 9.00.
